Ten compounds from PubChem BioAssay (NCI) can be followed below.

Some test systems named below: A549 NSCLC; HCT-116 colon; KM12 colon; OVCAR-5 ovarian; OVCAR-8 ovarian; RXF 393 renal; SR leukemia; TK-10 renal; U251 CNS; UO-31 renal.
Holding throughout (test): NCI tumour cell line growth inhibition, 48 h

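Five compound concentrations were applied to cells in 96-well plates for 48 hours; endpoints were derived by simple linear interpolation of the resulting dose-response curve. GI50 is the concentration that inhibits growth by half. TGI is the concentration that stops growth completely.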

Consider `CN1CCN(Cc2ccc(NC(=O)c3cncc(C#Cc4cnc(N)c5ccccc45)c3)cc2C(F)(F)F)CC1`, for which the GI50 in the assay on A549 NSCLC is 0.342 µM; with HCT-116 colon, 0.16 µM; in the assay on KM12 colon, 0.0148 µM; in the assay with OVCAR-5 ovarian, 0.457 µM; in the assay with OVCAR-8 ovarian it was 0.473 µM; with RXF 393 renal it was 0.163 µM. Also, the GI50 is 0.157 µM in the assay with SR leukemia, 0.466 µM in the assay on TK-10 renal, 0.279 µM in the assay with U251 CNS and 0.436 µM in the assay with UO-31 renal. Moreover, the TGI is 0.93 µM with A549 NSCLC; 0.581 µM in the assay with HCT-116 colon; 0.43 µM in the assay with KM12 colon; 1.11 µM in the assay with OVCAR-5 ovarian; 1.46 µM in the assay with OVCAR-8 ovarian; 0.563 µM in the assay with RXF 393 renal. For the same compound, the TGI was 6.63 µM in the assay on SR leukemia, 1 µM with TK-10 renal, 0.763 µM in the assay with U251 CNS and 0.869 µM with UO-31 renal.
In the case of `CN(C)S(=O)(=O)Nc1ccccn1`, the TGI in the assay with A549 NSCLC, in the assay on HCT-116 colon, in the assay on KM12 colon, in the assay with OVCAR-5 ovarian, in the assay on OVCAR-8 ovarian and in the assay with RXF 393 renal was more than 100 µM in each case. Besides, the TGI in the assay on SR leukemia, with TK-10 renal, in the assay with U251 CNS and with UO-31 renal was more than 100 µM each time.
Consider `O=C1CSC(N2CCN(c3cccc(Cl)c3)CC2)=N1`, for which the GI50 with A549 NSCLC, in the assay on HCT-116 colon, in the assay with KM12 colon, with OVCAR-5 ovarian, in the assay on OVCAR-8 ovarian and in the assay on RXF 393 renal was more than 100 µM in each case. The GI50 with SR leukemia, in the assay on TK-10 renal, in the assay on U251 CNS and in the assay on UO-31 renal was more than 100 µM in each case. Also, the TGI with A549 NSCLC, in the assay on HCT-116 colon, with KM12 colon, with OVCAR-5 ovarian, in the assay with OVCAR-8 ovarian and in the assay on RXF 393 renal was more than 100 µM in each case. The TGI in the assay with SR leukemia, in the assay with TK-10 renal, in the assay on U251 CNS and in the assay on UO-31 renal was more than 100 µM in each case.
Consider `COc1cc2c(c(O)c1C)C(=O)C(Cl)=CC2=O`, for which the TGI stood at 55.8 µM in the assay on A549 NSCLC; 22.6 µM in the assay on HCT-116 colon; 42.1 µM with KM12 colon; 44.3 µM in the assay on OVCAR-5 ovarian; 45 µM in the assay with OVCAR-8 ovarian; 13.1 µM with RXF 393 renal. The TGI came out at 4.37 µM with SR leukemia, 15.3 µM with TK-10 renal, 47.3 µM in the assay on U251 CNS and 21.6 µM with UO-31 renal.
For the compound `CC1(C)N=C(N)N=C(N)N1c1ccc(CCCCc2ccc(S(=O)(=O)F)cc2Cl)c(Cl)c1`, the TGI in the assay on A549 NSCLC is 200 µM; in the assay with HCT-116 colon, 140 µM; in the assay on KM12 colon, 9.77 µM; with OVCAR-5 ovarian it was 198 µM; with OVCAR-8 ovarian it was 261 µM; in the assay with RXF 393 renal it was 187 µM. Also, the TGI was more than 500 µM in the assay with SR leukemia, 231 µM in the assay with TK-10 renal, 53.2 µM in the assay on U251 CNS and 224 µM with UO-31 renal.
Take `C1CN2N3CCCC23C1` (stereo not given): the TGI in the assay with A549 NSCLC, with HCT-116 colon, in the assay with KM12 colon, in the assay on OVCAR-5 ovarian, in the assay with OVCAR-8 ovarian and with RXF 393 renal was more than 100 µM each time. Further, the TGI in the assay on SR leukemia, in the assay with TK-10 renal, in the assay on U251 CNS and in the assay with UO-31 renal was more than 100 µM in each case.
As for `CCN1CCN(c2nc(NCCNc3ccnc4cc(Cl)ccc34)c3ccccc3n2)CC1`, the GI50 in the assay with A549 NSCLC is 2.21 µM; with HCT-116 colon, 1.1 µM; in the assay with KM12 colon, 1.63 µM; in the assay with OVCAR-5 ovarian it was 2.56 µM; in the assay on OVCAR-8 ovarian it was 1.89 µM; in the assay on RXF 393 renal it was 1.26 µM. In addition, the GI50 is 0.287 µM with SR leukemia, 2.42 µM in the assay with TK-10 renal, 2.28 µM in the assay with U251 CNS and 1.53 µM in the assay on UO-31 renal. Also, the TGI with A549 NSCLC came to 8.48 µM; with HCT-116 colon, 6.13 µM; in the assay on KM12 colon it was 5.18 µM; in the assay on OVCAR-5 ovarian, 9.14 µM; in the assay on OVCAR-8 ovarian it was 5.96 µM; in the assay with RXF 393 renal it was 2.77 µM. Moreover, the TGI in the assay with SR leukemia is 0.898 µM; in the assay with TK-10 renal, 6.02 µM; with U251 CNS, 10.1 µM; with UO-31 renal, 3.3 µM.
For the compound `O=[N+]([O-])c1ccc(NSc2ccccc2)cc1`, the TGI in the assay on A549 NSCLC is more than 100 µM; with HCT-116 colon it was more than 100 µM; in the assay with KM12 colon it was more than 100 µM; in the assay with OVCAR-5 ovarian, more than 100 µM; in the assay on OVCAR-8 ovarian it was 45.6 µM; in the assay with RXF 393 renal, 40.9 µM. For the same compound, the TGI with SR leukemia was 63.2 µM; in the assay on TK-10 renal, more than 100 µM; in the assay with U251 CNS, more than 100 µM; in the assay with UO-31 renal it was more than 100 µM.
As to `O=C1Oc2cc3c(c4cccc1c24)OCN(c1ccc(Cl)cc1)C3`, the TGI was more than 100 µM in the assay on A549 NSCLC; 29.3 µM in the assay with HCT-116 colon; more than 63.6 µM in the assay with KM12 colon; more than 77.3 µM in the assay on OVCAR-5 ovarian; more than 100 µM with OVCAR-8 ovarian; more than 84.2 µM in the assay with RXF 393 renal. For the same compound, the TGI was 49 µM with SR leukemia, more than 100 µM in the assay with TK-10 renal, more than 79.5 µM in the assay with U251 CNS and 32.2 µM in the assay on UO-31 renal.
On to `O=[n+]1c(CBr)c(CBr)n([O-])c2ccccc21`, for which the GI50 is 17.4 µM in the assay on A549 NSCLC; 3.94 µM in the assay on HCT-116 colon; 17.1 µM in the assay with KM12 colon; 14 µM in the assay with OVCAR-5 ovarian; 15.2 µM with OVCAR-8 ovarian; 4.66 µM in the assay on RXF 393 renal. The GI50 with SR leukemia was 2.82 µM; with TK-10 renal it was 1.97 µM; in the assay on U251 CNS, 14.5 µM; in the assay on UO-31 renal it was 1.44 µM. Besides, the TGI with A549 NSCLC came to 35.6 µM; with HCT-116 colon, 14.5 µM; in the assay on KM12 colon, 31.5 µM; with OVCAR-5 ovarian, 27.1 µM; with OVCAR-8 ovarian, 31 µM; in the assay on RXF 393 renal, 16.9 µM. For the same compound, the TGI in the assay with SR leukemia was more than 100 µM; in the assay on TK-10 renal it was 4.17 µM; with U251 CNS, 29.8 µM; in the assay with UO-31 renal, 3 µM.
